“Also recorded” adds a separate entry of the source.
Key:
[1] = tested on: HeLa cells transfected with wild-type lamin A-CSIM, progerin-CSIM, progerin-SSIM or progerin-CSIL; assay: Nuclear blebbing and GFP localization in transiently transfected HeLa cells treated with FTI; type: cell-based; conditions: 48 hours
Method: Transient Transfections. Approximately 25,000 cells were plated per chamber of 4-chamber slides (Lab-Tek, Nalge Nunc International, #154526). After twenty-four hours, HeLa and HEK-293 cell lines were transiently transfected with 0.8 μg of each construct using LIPOFECTAMINE®2000 transfection reagent (Invitrogen) under standard conditions.
(§1) FTI Treatment. At the time of transient transfection, HeLa cells were treated with one dose of 0, 0.5, 1.0, or 2.0 μM of the selective FTI lonafarnib [Sarasar, SCH66336, (Schering-Plough)]. HEK-293 cells were treated with one dose of 0, 1, 2, 5, or 10 μM of the selective FTI L-744832 (Biomol). […] These FTIs have the same mechanism of action and can be used interchangeably to inhibit protein farnesylation in vitro. However, only lonafarnib is a clinical candidate. Normal and HGPS fibroblasts were treated with one daily dose of 0, 0.5, 1.0, or 2.0 μM of lonafarnib for 3 days.
GFP Localization and Fluorescence Microscopy. Forty-eight hours following transient transfection, the HeLa and HEK-293 cells were visualized for GFP localization using an LSM510 confocal microscope (Zeiss). Following three-day treatment with lonafarnib, HGPS fibroblasts were washed two times with phosphate-buffered saline (PBS) (pH 7.2) and fixed for 10 minutes at room temperature with 1% paraformaldehyde in PBS. Following three washes with PBS, the cells were permeabilized for 5 minutes at room temperature with 0.5% Triton X-100 in PBS and blocked with 5% horse serum for 30 minutes at room temperature. Cells were then incubated for one hour at room temperature with the primary antibody diluted in blocking solution, a […] mouse anti-human lamin A/C at 1:10 (mAb3211, Chemicon). Three more washes with PBS were then followed by incubation with the secondary antibody, Alexa 488-conjugated donkey anti-mouse IgG (Molecular Probes), for 45 minutes and three additional PBS washes. Slides were then mounted with mounting medium containing DAPI (Vector Laboratories).
Morphometric Analysis. To examine the overall percentage of blebbed cells in cells with different amounts and lengths of FTI treatment, 200 nuclei were classified as either blebbed, if they contained two or more lobulations, or not blebbed, as previously described (Goldman et al., Proc. Natl. Acad. Sci. USA 101:8963-8968, 2004). These classifications were done by three independent observers, all blinded to the specifics of the cells being examined, followed by averaging three independent data sets. Armitage's trend test (Armitage, Biometrics 11:375-386, 1955) was used to test for a dose-dependent response for each cell type.

[2] = tested on: HGPS fibroblast lines AG06917, AG11513, AG11498; assay: Nuclear blebbing of HGPS skin fibroblasts treated with FTI; type: cell-based, human; conditions: once daily 0, 0.5, 1.0, 2.0 μM for three days; p<0.0001
Method: Cell Culture. Cell lines used were the normal human fibroblast line, AG06299, and HGPS fibroblast lines: AG06917, AG11513, and AG11498 (obtained from the NIA Aging Cell Culture Repository, Coriell Institute for Medical Research, Camden, N.J.). Fibroblasts were cultured in minimal essential medium (MEM; Invitrogen/Gibco) supplemented with 15% FBS (HiClone), 2 mM L-glutamine, penicillin (50 U/ml) and streptomycin ([…]). HeLa and HEK-293 cell lines were cultured in DMEM (Invitrogen/Gibco) supplemented with 10% fetal bovine serum and antibiotics.
as §1
GFP Localization and Fluorescence Microscopy. Forty-eight hours following transient transfection, the HeLa and HEK-293 cells were visualized for GFP localization using an LSM510 confocal microscope (Zeiss). […]

[3] = tested on: several human cancer cell lines; conditions: cited from earlier work
[4] = tested on: human brain, lung, prostate, pancreas, colon, and bladder tumor xenografts; conditions: nude mice; cited from earlier work
[5] = tested on: protein farnesylation; conditions: Phase I clinical trial; cited from earlier work
[6] = tested on: BCR/ABL; conditions: cell culture and mouse models; cited from earlier work
[7] = Phase III trials, including trials involving children; cited from earlier work

## NC(=O)N1CCC(CC(=O)N2CCC([C@H]3c4ncc(Br)cc4CCc4cc(Cl)cc(Br)c43)CC2)CC1 [lonafarnib]
[1]; 0 to 2.0 μM
  change of nuclear blebbing, wild-type lamin A-CSIM: unchanged; also recorded: does not change significantly
  percentage of nuclear blebbing, wild-type lamin A-CSIM: approximately 5%
[1]; 2 μM single dose at transfection
  nuclear blebbing, progerin-CSIM: approaching normal blebbing percentages; also recorded: almost totally abolishes
[1]; 2 μM
  localization of progerin, progerin-CSIM: relocalization of progerin into nucleoplasmic aggregates
[1]; single dose 0, 0.5, 1.0, 2.0 μM, p<0.0001
  dose response of nuclear blebbing, progerin-CSIM: dramatic dose-dependent response
[1]; up to 2 μM
  nuclear blebbing, progerin-CSIL: completely resistant; also recorded: resistant to FTI treatment; also recorded: resistant to inhibition of farnesylation
  phenotype, progerin-SSIM: no difference; also recorded: does not change significantly
[2]
  nuclear blebbing in HGPS fibroblasts: significant dose-dependent reduction; also recorded: reversion of the nuclear blebbing
[3]
  proliferation of several human cancer cell lines: inhibit proliferation
[4]
  activity against human tumor xenografts: active
[5]
  protein farnesylation in vivo: inhibits
  tolerability: generally well tolerated
[6]
  anti-leukemic activity: demonstrated
[7]
  tolerability: well tolerated

Reference: patent publication US8257915B2, “Farnesyltransferase inhibitors for treatment of laminopathies, cellular aging and atherosclerosis” (Progeria Research Foundation, Inc., priority 2002, dated 2012)
